Measurements reported in patent US12606572B2, “Substituted heterocycles and uses thereof” (Kumquat Biosciences Inc., priority 2023, dated 2026).

Legend:
KRAS WT = molecular target: T1, KRAS WT (Homo sapiens, UniProt P01116); assay: HTRF assay, interaction of GST-tagged K-Ras with His-tagged hSOS1 (KRAS wildtype); assay type: biochemical; details: <500 nM, read-out: Inhibition of KRAS WT (IC50)
T1 construct: made in house; host or cells: E. coli BL21 (DE3)
Method in brief: (§1)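 GST-K-Ras (G12S or WT) with anti-GST-Eu donor mixed with His-hSOS1 and anti-6His-XL665 acceptor in ~5 mM HEPES pH 7.4, 150 mM NaCl, 1 mM DTT, 0.05% BSA, 0.0025% Igepal. After ~10 min or longer, HTRF 665/620 nm ratio read.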

KRAS G12S = molecular target: T2, KRAS G12S (Homo sapiens, UniProt P01116, G12S); assay: HTRF assay, interaction of GST-tagged K-Ras with His-tagged hSOS1 (KRAS G12S); assay type: biochemical; details: <500 nM, read-out: Inhibition of KRAS G12S (IC50)
T2 construct: made in house; host or cells: E. coli BL21 (DE3)
Method in brief: as §1

T2 sequence (P01116 1-188 isoform P01116-2 G12S): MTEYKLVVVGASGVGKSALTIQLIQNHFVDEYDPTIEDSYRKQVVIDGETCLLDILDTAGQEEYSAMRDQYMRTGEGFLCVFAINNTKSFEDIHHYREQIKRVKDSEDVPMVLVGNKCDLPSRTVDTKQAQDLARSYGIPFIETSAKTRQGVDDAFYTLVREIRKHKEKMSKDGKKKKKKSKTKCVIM
T1 sequence (P01116 1-188 isoform P01116-2): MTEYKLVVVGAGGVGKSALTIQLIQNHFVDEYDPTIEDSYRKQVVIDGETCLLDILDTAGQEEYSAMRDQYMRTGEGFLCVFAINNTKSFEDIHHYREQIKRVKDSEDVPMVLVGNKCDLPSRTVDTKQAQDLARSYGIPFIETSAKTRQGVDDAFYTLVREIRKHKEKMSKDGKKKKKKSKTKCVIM

| SMILES | IC50 (KRAS WT) [nM] | IC50 (KRAS G12S) [nM] |
| --- | --- | --- |
| N#Cc1c(N)sc2c(F)ccc(-c3c(Cl)c4c5c(nc(OC[C@@]67CCCN6C[C@H](F)C7)nc5c3F)N(CC3CN(C(=O)C5=CCCC5)C3)CCO4)c12 [Compound 462, 2-amino-4-(8-chloro-4-((1-(cyclopent-1-ene-1-carbonyl)azetidin-3-yl)methyl)-10-fluoro-2-(((2R,7aS)-2-fluorotetrahydro-1H-pyrrolizin-7a(5H)-yl)methoxy)-5,6-dihydro-4H-[1,4]oxazepino [5,6,7-de]quinazolin-9-yl)-7-fluorobenzo[b]thiophene-3-carbonitrile] | < 500 | < 500 |
| N#Cc1c(N)sc2c(F)ccc(-c3c(Cl)c4c5c(nc(OC[C@@]67CCCN6C[C@H](F)C7)nc5c3F)N(CC3(O)CN(C(=O)n5ccnc5)C3)CCO4)c12 [Compound 463, 2-amino-4-(8-chloro-10-fluoro-2-(((2R,7aS)-2-fluorotetrahydro-1H-pyrrolizin-7a(5H)-yl)methoxy)-4-((3-hydroxy-1-(1H-imidazole-1-carbonyl)azetidin-3-yl)methyl)-5,6-dihydro-4H-[1,4]oxazepino [5,6,7-de]quinazolin-9-yl)-7-fluorobenzo[b]thiophene-3-carbonitrile] | < 500 | < 500 |
| Cc1cn(C(=O)N2CC[C@@H](N3C[C@H](C)Oc4c(Cl)c(-c5ccc(F)c6sc(N)c(C#N)c56)c(F)c5nc(OC[C@@]67CCCN6C[C@H](F)C7)nc3c45)[C@H]2C)c(C)n1 [Compound 464, 2-amino-4-((6S)-8-chloro-4-((2R,3R)-1-(2,4-dimethyl-1H-imidazole-1-carbonyl)-2-methylpyrrolidin-3-yl)-10-fluoro-2-(((2R,7aS)-2-fluorotetrahydro-1H-pyrrolizin-7a(5H)-yl)methoxy)-6-methyl-5,6-dihydro-4H-[1,4]oxazepino[5,6,7-de]quinazolin-9-yl)-7-fluorobenzo[b] thiophene-3-carbonitrile] | < 500 | < 500 |
| C=CC(=O)N1CC(CN2CCOc3c(Cl)c(-c4ccc(F)c5sc(N)c(C#N)c45)c(F)c4nc(OC[C@@]56CCCN5C[C@H](F)C6)nc2c34)C1 [Compound 466, 4-(4-((1-acryloylazetidin-3-yl)methyl)-8-chloro-10-fluoro-2-(((2R,7aS)-2-fluorotetrahydro-1H-pyrrolizin-7a(5H)-yl)methoxy)-5,6-dihydro-4H-[1,4]oxazepino[5,6,7-de]quinazolin-9-yl)-2-amino-7-fluorobenzo[b]thiophene-3-carbonitrile] | < 500 | < 500 |
| CN(C)C/C=C/C(=O)N1CC(CN2CCOc3c(Cl)c(-c4ccc(F)c5sc(N)c(C#N)c45)c(F)c4nc(OC[C@@]56CCCN5C[C@H](F)C6)nc2c34)C1 [Compound 469, 2-amino-4-(8-chloro-4-((1-((E)-4-(dimethylamino)but-2-enoyl)azetidin-3-yl)methyl)-10-fluoro-2-(((2R, 7aS)-2-fluorotetrahydro-1H-pyrrolizin-7a(5H)-yl)methoxy)-5,6-dihydro-4H-[1,4]oxazepino[5,6,7-de]quinazolin-9-yl)-7-fluorobenzo [b]thiophene-3-carbonitrile] | < 500 | < 500 |
| C=CC(=O)N1CC[C@@H](N2CCOc3c(Cl)c(-c4ccc(F)c5sc(N)c(C#N)c45)c(F)c4nc(OC[C@@]56CCCN5C[C@H](F)C6)nc2c34)[C@H]1C [Compound 470, 4-(4-((2R,3R)-1-acryloyl-2-methylpyrrolidin-3-yl)-8-chloro-10-fluoro-2-(((2R, 7aS)-2-fluorotetrahydro-1H-pyrrolizin-7a(5H)-yl)methoxy)-5,6-dihydro-4H-[1,4]oxazepino[5,6,7-de]quinazolin-9-yl)-2-amino-7-fluorobenzo[b]thiophene-3-carbonitrile] | < 500 | < 500 |
| CC(C)[C@@H]1[C@H](CN2CCOc3c(Cl)c(-c4ccc(F)c5sc(N)c(C#N)c45)c(F)c4nc(OC[C@@]56CCCN5C[C@H](F)C6)nc2c34)CN1C(=O)n1cnc(F)n1 [Compound 471, 2-amino-4-(8-chloro-10-fluoro-4-(((2R,3R)-1-(3-fluoro-1H-1,2,4-triazole-1-carbonyl)-2-isopropylazetidin-3-yl)methyl)-2-(((2R,7aS)-2-fluorotetrahydro-1H-pyrrolizin-7a (5H)-yl)methoxy)-5,6-dihydro-4H-[1,4]oxazepino[5,6,7-de]quinazolin-9-yl)-7-fluorobenzo[b]thiophene-3-carbonitrile] | < 500 | < 500 |

Further lines, results first:

| IC50 (KRAS WT) [nM] | IC50 (KRAS G12S) [nM] | SMILES |
| --- | --- | --- |
| < 500 | < 500 | N#Cc1c(N)sc2c(F)ccc(-c3c(Cl)c4c5c(nc(OC[C@@]67CCCN6C[C@H](F)C7)nc5c3F)N(CC3CN(C(=O)/C=C/C5COC5)C3)CCO4)c12 [Compound 475, 2-amino-4-(8-chloro-10-fluoro-2-(((2R,7aS)-2-fluorotetrahydro-1H-pyrrolizin-7a(5H)-yl)methoxy)-4-((1-((E)-3-(oxetan-3-yl)acryloyl)azetidin-3-yl)methyl)-5,6-dihydro-4H-[1,4]oxazepino[5,6,7-de]quinazolin-9-yl)-7-fluorobenzo[b] thiophene-3-carbonitrile] |
| < 500 | < 500 | COCC1([C@@H]2[C@H](CN3CCOc4c(Cl)c(-c5ccc(F)c6sc(N)c(C#N)c56)c(F)c5nc(OC[C@@]67CCCN6C[C@H](F)C7)nc3c45)CN2C(=O)n2cnc(C)c2)CC1 [Compound 477, 2-amino-4-(8-chloro-10-fluoro-2-(((2R,7aS)-2-fluorotetrahydro-1H-pyrrolizin-7a(5H)-yl)methoxy)-4-(((2S,3R)-2-(1-(methoxymethyl)cyclopropyl)-1-(4-methyl-1H-imidazole-1-carbonyl)azetidin-3-yl)methyl)-5,6-dihydro-4H-[1,4]oxazepino[5,6,7-de]quinazolin-9-yl)-7-fluorobenzo [b]thiophene-3-carbonitrile] |
| < 500 | < 500 | C[C@@H]1[C@H](N2CCCOc3c(Cl)c(-c4ccc(F)c5sc(N)c(C#N)c45)c(F)c4nc(OC[C@@]56CCCN5C[C@H](F)C6)nc2c34)CCN1C(=O)n1ccnc1 [Compound 481, 4-(4-((2R,3R)-1-(1H-imidazole-1-carbonyl)-2-methylpyrrolidin-3-yl)-9-chloro-11-fluoro-2-(((2R,7aS)-2-fluorotetrahydro-1H-pyrrolizin-7a(5H)-yl)methoxy)-4,5,6,7-tetrahydro-[1,5]oxazocino[4,3,2-de]quinazolin-10-yl)-2-amino-7-fluorobenzo[b]thiophene-3-carbonitrile] |
| < 500 | < 500 | CC#CC(=O)N1C[C@@H](CN2CCOc3c(Cl)c(-c4ccc(F)c5sc(N)c(C#N)c45)c(F)c4nc(OC[C@@]56CCCN5C[C@H](F)C6)nc2c34)[C@H]1C1(C)CC1 [Compound 484, 2-amino-4-(4-(((2S,3R)-1-(but-2-ynoyl)-2-(1-methylcyclopropyl)azetidin-3-yl)methyl)-8-chloro-10-fluoro-2-(((2R,7aS)-2-fluorotetrahydro-1H-pyrrolizin-7a(5H)-yl)methoxy)-5,6-dihydro-4H-[1,4]oxazepino [5,6,7-de]quinazolin-9-yl)-7-fluorobenzo[b]thiophene-3-carbonitrile] |
| < 500 | < 500 | Cc1cn(C(=O)N2CC[C@@H](N3CCOc4nc(-c5cc(N)c(F)c(C)c5C(F)(F)F)c(F)c5nc(OC[C@@]67CCCN6C[C@H](F)C7)nc3c45)[C@H]2C)c(C)n1 [Compound 487, ((2R,3R)-3-(5-(5-amino-4-fluoro-3-methyl-2-(trifluoromethyl)phenyl)-4-fluoro-2-(((2R,7aS)-2-fluorotetrahydro-1H-pyrrolizin-7a(5H)-yl)methoxy)-8,9-dihydro-10H-7-oxa-1,3,6,10-tetraazacyclohepta[de]naphthalen-10-yl)-2-methylpyrrolidin-1-yl)(2,4-dimethyl-1H-imidazol-1-yl) methanone] |
| < 500 | < 500 | C=C(F)C(=O)N1CC(CN2CCOc3c(Cl)c(-c4ccc(F)c5sc(N)c(C#N)c45)c(F)c4nc(OC[C@@]56CCCN5C[C@H](F)C6)nc2c34)C1 [Compound 491, 2-amino-4-(8-chloro-10-fluoro-4-((1-(2-fluoroacryloyl)azetidin-3-yl)methyl)-2-(((2R,7aS)-2-fluorotetrahydro-1H-pyrrolizin-7a(5H)-yl)methoxy)-5,6-dihydro-4H-[1,4]oxazepino[5,6,7-de]quinazolin-9-yl)-7-fluorobenzo[b]thiophene-3-carbonitrile] |
| < 500 | < 500 | CC(C)[C@@H]1[C@H](CN2CCOc3c(Cl)c(-c4ccc(F)c5sc(N)c(C#N)c45)c(F)c4nc(OC[C@@]56CCCN5C[C@H](F)C6)nc2c34)CN1C(=O)n1cnc(Cl)n1 [Compound 493, 2-amino-4-(8-chloro-4-(((2R,3R)-1-(3-chloro-1H-1,2,4-triazole-1-carbonyl)-2-isopropylazetidin-3-yl)methyl)-10-fluoro-2-(((2R,7aS)-2-fluorotetrahydro-1H-pyrrolizin-7a (5H)-yl)methoxy)-5,6-dihydro-4H-[1,4]oxazepino[5,6,7-de]quinazolin-9-yl)-7-fluorobenzo[b]thiophene-3-carbonitrile] |
| < 500 | < 500 | CC1([C@@H]2[C@H](CN3CCCOc4c(Cl)c(-c5ccc(F)c6sc(N)c(C#N)c56)c(F)c5nc(OC[C@@]67CCCN6C[C@H](F)C7)nc3c45)CN2C(=O)n2ccnc2)CC1 [Compound 494, 4-(4-(((2S,3R)-1-(1H-imidazole-1-carbonyl)-2-(1-methylcyclopropyl)azetidin-3-yl)methyl)-9-chloro-11-fluoro-2-(((2R,7aS)-2-fluorotetrahydro-1H-pyrrolizin-7a(5H)-yl)methoxy)-4,5,6,7-tetrahydro-[1,5]oxazocino [4,3,2-de]quinazolin-10-yl)-2-amino-7-fluorobenzo[b] thiophene-3-carbonitrile] |
